Each block holds one molecule with its values, some of them ahead of it. Calls of active or inactive are those of the source. No cut-off for these calls is given here.
What was measured:
[1] = Drug hydrolysis in water at pH 4.4 assessed as half life by HPLC-UV analysis; format: physicochemical
[2] = tested on: BMDM; test: Induction of IL-6 production in C57BL/6 mouse BMDM at 1 nmol incubated for 48 hrs by ELISA; format: functional, cell-based
[3] = tested on: Splenocyte; test: Improvement in memory response in ovalbumin immunized C57BL/6 mouse splenocytes assessed as increase in IFNgamma level incubated for 72 hrs by ELISA; format: functional, cell-based
[4] = Drug hydrolysis in water at pH 1 assessed as half life by HPLC-UV analysis; format: physicochemical
[5] = tested on: HEK293; test: Induction of IL-8 production in HEK293 cells expressing mouse NOD2 at 5 to 50 uM incubated for 20 hrs by ELISA; format: functional, cell-based; details: Homo sapiens, dose 5-50 µM
[6] = Drug hydrolysis in water at pH 7 assessed as half life by HPLC-UV analysis; format: physicochemical; details: buffer
[7] = tested on: BMDM; test: Induction of IL-23 production in C57BL/6 mouse BMDM at 1 nmol incubated for 48 hrs by ELISA; format: functional, cell-based
[8] = tested on: BMDM; test: Induction of IL-1beta production in C57BL/6 mouse BMDM at 1 nmol incubated for 48 hrs by ELISA; format: functional, cell-based
[9] = Toxicity in ovalbumin immunized C57BL/6 mouse assessed as body weight loss at 40 nmol boosted with OVA at 1 week and measured after week 3, 4, 5 and 6; details: in vivo, 1008 h, time 6 weeks
[10] = tested on: 2B4; test: Induction of NFAT-GFP signal in mouse 2B4 reporter cells expressing mMincle + FcRgamma at 0.1 to 1 nmol incubated for 18 hrs by flow cytometry analysis; format: functional, cell-based; details: dose 0.1-1 nmol
[11] = organism: Mus musculus; test: Adjuvanticity in ovalbumin immunized C57BL/6 mouse assessed as increase in anti-OVA IgG titers at 40 nmol boosted with OVA at 1 week and measured after week 4, 5, 6 by ELISA; format: functional, organism-based; details: time 6.0 weeks
[12] = tested on: BMDM; test: Induction of IL-23 production in C57BL/6 mouse BMDM cells at 2.5 ug/ml incubated for 48 hrs in presence of 1 nmol [(2R,3S,4S,5R,6R)-3,4,5-trihydroxy-6-[(3R,4S,5S,6R)-3,4,5-trihydroxy-6-[(4-octadecoxybenzoyl)oxymethyl]tetrahydropyran-2-yl]oxy-tetrahydropyran-2-yl]methyl 4-octadecoxybenzoate by ELISA; format: functional, cell-based; details: dose 2.5 µg/ml
[13] = tested on: HEK293; test: Induction of IL-8 production in HEK293 cells expressing mouse NOD2 at 5 to 50 uM incubated for 20 hrs in presence of 10 to 100 uM (4R)-4-[[(2S)-2-[[(2R)-2-[(3R,4R,5S,6R)-3-acetamido-2,5-dihydroxy-6-(hydroxymethyl)tetrahydropyran-4-yl]oxypropanoyl]amino]propanoyl]amino]-5-amino-5-oxo-pentanoic acid by ELISA; format: functional, cell-based; details: Homo sapiens, dose 5-50 µM
[14] = tested on: BMDM; test: Induction of IL-23 production in C57BL/6 mouse BMDM cells at 1 nmol per well incubated for 48 hrs in presence of 2 ug/ml murabutide by ELISA; format: functional, cell-based
[15] = tested on: BMDM; test: Induction of IL-23 production in C57BL/6 mouse BMDM cells at 1 nmol per well incubated for 48 hrs in presence of 2ug/ml (4R)-4-[[(2S)-2-[[(2R)-2-[(3R,4R,5S,6R)-3-acetamido-2,5-dihydroxy-6-(hydroxymethyl)tetrahydropyran-4-yl]oxypropanoyl]amino]propanoyl]amino]-5-amino-5-oxo-pentanoic acid by ELISA; format: functional, cell-based
[16] = tested on: Splenocyte; test: Improvement in memory response in ovalbumin immunized C57BL/6 mouse splenocytes assessed as increase in IFNgamma level incubated for 72 hrs in presence of (4R)-4-[[(2S)-2-[[(2R)-2-[(3R,4R,5S,6R)-3-acetamido-2,5-dihydroxy-6-(hydroxymethyl)tetrahydropyran-4-yl]oxypropanoyl]amino]propanoyl]amino]-5-amino-5-oxo-pentanoic acid by ELISA; format: functional, cell-based
[17] = tested on: BMDM; test: Induction of IL-1beta production in C57BL/6 mouse BMDM cells at 1 nmol per well incubated for 48 hrs in presence of 2 ug/ml (4R)-4-[[(2S)-2-[[(2R)-2-[(3R,4R,5S,6R)-3-acetamido-2,5-dihydroxy-6-(hydroxymethyl)tetrahydropyran-4-yl]oxypropanoyl]amino]propanoyl]amino]-5-amino-5-oxo-pentanoic acid by ELISA; format: functional, cell-based
[18] = tested on: BMDM; test: Induction of IL-23 production in C57BL/6 mouse BMDM cells at 1 nmol per well incubated for 48 hrs in presence of 2.5 ug/ml (2R,6S)-2-amino-6-[[(4R)-4-amino-4-carboxy-butanoyl]amino]heptanedioic acid by ELISA; format: functional, cell-based
[19] = tested on: BMDM; test: Induction of IL-23 production in C57BL/6 mouse BMDM cells at 2 ug/ml incubated for 48 hrs in presence of 1 nmol [(2R,3S,4S,5R,6R)-3,4,5-trihydroxy-6-[(3R,4S,5S,6R)-3,4,5-trihydroxy-6-[(4-octadecoxybenzoyl)oxymethyl]tetrahydropyran-2-yl]oxy-tetrahydropyran-2-yl]methyl 4-octadecoxybenzoate by ELISA; format: functional, cell-based; details: dose 2.0 µg/ml

half-life [1]: 60 h | half-life [4]: 1 h | t1/2 [6]: 1 yr
Structure (SMILES): CON(CCCn1cc(CCCCCCCCCCCCCCCCCOc2ccc(C(=O)OC[C@H]3OC(O[C@H]4O[C@H](COC(=O)c5ccc(OCCCCCCCCCCCCCCCCCc6cn(CCCN(OC)[C@H]7O[C@@H](CO)[C@H](O)[C@@H](O[C@H](C)C(=O)N[C@@H](C)C(=O)N[C@H](CCC(=O)O)C(N)=O)[C@@H]7NC(C)=O)nn6)cc5)[C@@H](O)[C@H](O)[C@H]4O)[C@H](O)[C@@H](O)[C@@H]3O)cc2)nn1)[C@@H]1O[C@@H](CO)[C@H](O)[C@@H](O[C@H](C)C(=O)N[C@@H](C)C(=O)N[C@H](CCC(=O)O)C(N)=O)[C@@H]1NC(C)=O (some centres not stated)
Activity [2]: Active | Activity [3]: Active | Activity [5]: Active | Activity [7]: Active | Activity [8]: Active | Activity [9]: Non-Toxic | Activity [10]: Active | Activity [11]: Active

Structure (SMILES): N[C@H](CCC[C@H](NC(=O)CC[C@@H](N)C(=O)O)C(=O)O)C(=O)O
Activity [12]: inactive

Structure (SMILES): CCCCCCCCCCCCCCCCCCOc1ccc(C(=O)OC[C@H]2O[C@H](O[C@H]3O[C@H](COC(=O)c4ccc(OCCCCCCCCCCCCCCCCCC)cc4)[C@@H](O)[C@H](O)[C@H]3O)[C@H](O)[C@@H](O)[C@@H]2O)cc1
Activity [13]: Active | Activity [14]: inactive | Activity [15]: Active | Activity [5]: inactive | Activity [16]: Active | Activity [17]: Active | Activity [10]: Active | Activity [18]: inactive

Structure (SMILES): CCCCOC(=O)[C@@H](CCC(N)=O)NC(=O)[C@H](C)NC(=O)[C@@H](C)O[C@H]1[C@H](O)[C@@H](CO)OC(O)[C@@H]1NC(C)=O (some centres not stated)
Activity [19]: inactive

Structure (SMILES): CONCCCn1cc(CCCCCCCCCCCCCCCCCOc2ccc(C(=O)OC[C@H]3O[C@H](O[C@H]4O[C@H](COC(=O)c5ccc(OCCCCCCCCCCCCCCCCCc6cn(CCCNOC)nn6)cc5)[C@@H](O)[C@H](O)[C@H]4O)[C@H](O)[C@@H](O)[C@@H]3O)cc2)nn1
Activity [10]: Active
